{"source": "patent US12264134B2", "about": "(Merck Sharp & Dohme LLC, priority 2018, dated 2025)", "key": {"IDO1 [1]": {"biological_target": "T1, IDO1 (Homo sapiens, UniProt P14902)", "T1 sequence (P14902 whole entry)": "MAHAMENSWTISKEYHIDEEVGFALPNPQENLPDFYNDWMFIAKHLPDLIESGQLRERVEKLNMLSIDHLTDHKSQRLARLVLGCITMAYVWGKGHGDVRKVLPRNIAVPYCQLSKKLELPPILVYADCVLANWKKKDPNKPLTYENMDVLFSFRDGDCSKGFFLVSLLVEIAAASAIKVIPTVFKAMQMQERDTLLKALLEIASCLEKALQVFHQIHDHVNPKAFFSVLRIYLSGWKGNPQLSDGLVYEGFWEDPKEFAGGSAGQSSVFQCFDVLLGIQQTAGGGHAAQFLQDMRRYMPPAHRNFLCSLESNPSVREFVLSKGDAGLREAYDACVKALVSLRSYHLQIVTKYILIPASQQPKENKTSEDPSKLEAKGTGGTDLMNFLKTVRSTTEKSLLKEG", "experiment": "IDO1 Human Whole blood Assay", "assay_type": "cell-based", "set-up": "Human whole blood was drawn in sodium heparin coated tubes from healthy internal donors; from tissue; host or cells: human whole blood from healthy donors, stimulated with LPS and IFNγ", "conditions": "LPS and IFNγ stimulated, 18 h, read-out: Human Whole Blood Potency, IC50", "method_in_brief": "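Heparinized healthy-donor human whole blood was preincubated 15 min with compound, then stimulated with LPS and IFNγ (100 ng/mL final) for 18 h at 37 °C. Plasma kynurenine was quantified by LC/MS/MS against a D6-kynurenine internal standard, and IC50s came from 4-parameter sigmoidal fits.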"}, "IDO1 [2]": {"biological_target": "T1, IDO1", "experiment": "IDO1 Cellular Assay in HeLa Cells Stimulated with IFNγ", "assay_type": "cell-based", "conditions": "read-out: HeLa Cell Potency, IC50"}}, "data": [{"molecule": "Cc1c(Cl)cccc1N1CCN(C(=O)Cn2nc(C(=O)N3CCC(O)CC3)c3c2CCC(F)(F)C3)CC1", "note": "[Example 379, 1-(4-(3-chloro-2-methylphenyl)piperazin-1-yl)-2-(5,5-difluoro-3-(4-hydroxypiperidine-1-carbonyl)-4,5,6,7-tetrahydro-1H-indazol-1-yl)ethan-1-one]", "values": [{"measurement": "IC50", "setting": "IDO1 [1]", "value": 172, "unit": "nM"}, {"measurement": "IC50", "setting": "IDO1 [2]", "value": 3.25, "unit": "nM"}]}, {"molecule": "CC(=O)NC1CCN(C(=O)c2nn(CC(=O)N3CCN(c4cccc(Cl)c4C)CC3)c3c2CC(F)(F)CC3)CC1", "note": "[Example 380, N-(1-(1-(2-(4-(3-chloro-2-methylphenyl)piperazin-1-yl)-2-oxoethyl)-5,5-difluoro-4,5,6,7-tetrahydro-1H-indazole-3-carbonyl)piperidin-4-yl)acetamide]", "values": [{"measurement": "IC50", "setting": "IDO1 [1]", "value": 94, "unit": "nM"}, {"measurement": "IC50", "setting": "IDO1 [2]", "value": 1.67, "unit": "nM"}]}, {"molecule": "Cc1c(Cl)cccc1N1CCN(C(=O)Cn2nc(C(=O)N3CC[C@H](O)[C@H](F)C3)c3c2CCC(F)(F)C3)CC1", "note": "[Example 381]", "values": [{"measurement": "IC50", "setting": "IDO1 [1]", "value": 598, "unit": "nM"}, {"measurement": "IC50", "setting": "IDO1 [2]", "value": 4.85, "unit": "nM"}]}, {"molecule": "Cc1c(Cl)cccc1N1CCN(C(=O)Cn2nc(C(=O)N3CCN(C(=O)CO)CC3)c3c2CCC(F)(F)C3)CC1", "note": "[Example 384, 1-(4-(3-chloro-2-methylphenyl)piperazin-1-yl)-2-(5,5-difluoro-3-(4-(2-hydroxyacetyl)piperazine-1-carbonyl)-4,5,6,7-tetrahydro-1H-indazol-1-yl)ethan-1-one]", "values": [{"measurement": "IC50", "setting": "IDO1 [1]", "value": 249, "unit": "nM"}, {"measurement": "IC50", "setting": "IDO1 [2]", "value": 5.32, "unit": "nM"}]}, {"molecule": "Cc1cccc(N2CCN(C(=O)Cn3nc(C(=O)N4C[C@@H](C)O[C@@H](C)C4)c4c3CCC4)C3(CC3)C2)c1C", "note": "[Example 391, 2-(3-((2S,6R)-2.6-dimethylmorpholine-4-carbonyl)-5,6-dihydrocyclopenta[c]pyrazol-1(4H)-yl)-1-(7-(2,3-dimethylphenyl)-4.7-diazaspiro[2.5]octan-4-yl)ethanone]", "values": [{"measurement": "IC50", "setting": "IDO1 [1]", "value": 1000, "unit": "nM"}, {"measurement": "IC50", "setting": "IDO1 [2]", "value": 5, "unit": "nM"}]}, {"molecule": "Cc1c(Cl)cccc1N1CCN(C(=O)Cn2nc(C(=O)N3CCN(C(=O)CO)CC3)c3c2CCCC3)CC1", "note": "[Example 405, 1-(4-(3-chloro-2-methylphenyl)piperazin-1-yl)-2-(3-(4-(2-hydroxyacetyl)piperazine-1-carbonyl)-4,5,6,7-tetrahydro-1H-indazol-1-yl)ethanone]", "values": [{"measurement": "IC50", "setting": "IDO1 [1]", "value": 180, "unit": "nM"}, {"measurement": "IC50", "setting": "IDO1 [2]", "value": 3.58, "unit": "nM"}]}, {"molecule": "Cc1c(Cl)cccc1N1CCN(C(=O)Cn2nc(C(=O)N3CC[C@@H](O)[C@@H](F)C3)c3c2CCCC3)CC1", "note": "[Example 406, 1-(4-(3-chloro-2-methylphenyl)piperazin-1-yl)-2-(3-((3S,4R)-3-fluoro-4-hydroxypiperidine-1-carbonyl)-4,5,6,7-tetrahydro-1H-indazol-1-yl)ethanone]", "values": [{"measurement": "IC50", "setting": "IDO1 [1]", "value": 306, "unit": "nM"}, {"measurement": "IC50", "setting": "IDO1 [2]", "value": 3, "unit": "nM"}]}, {"molecule": "Cc1c(Cl)cccc1N1CCN(C(=O)Cn2nc(C(=O)N3CCC(O)CC3)c3c2C(F)(F)[C@H]2C[C@@H]32)CC1", "note": "[Example 448, 1-(4-(3-chloro-2-methylphenyl)piperazin-1-yl)-2-((3bR,4aS)-5,5-difluoro-3-(4-hydroxypiperidine-1-carbonyl)-3b,4,4a,5-tetrahydro-1H-cyclopropa[3,4]cyclopenta[1,2-c]pyrazol-1-yl)ethanone]", "values": [{"measurement": "IC50", "setting": "IDO1 [1]", "value": 365, "unit": "nM"}, {"measurement": "IC50", "setting": "IDO1 [2]", "value": 3.54, "unit": "nM"}]}, {"molecule": "Cc1cccc(N2CCN(C(=O)Cn3nc(C(=O)N4C[C@@H](C)O[C@@H](C)C4)c4c3C3CC3C4)CC2)c1C", "note": "(stereo partly drawn) [Example 449, 2-(3-((2R,6S)-2,6-dimethylmorpholine-4-carbonyl)-4,4a,5,5a-tetrahydro-1H-cyclopropa[4,5]cyclopenta[1,2-c]pyrazol-1-yl)-1-(4-(2,3-dimethylphenyl)piperazin-1-yl)ethanone]", "values": [{"measurement": "IC50", "setting": "IDO1 [1]", "value": 543, "unit": "nM"}, {"measurement": "IC50", "setting": "IDO1 [2]", "value": 7.99, "unit": "nM"}]}, {"molecule": "Cc1cccc(N2CCN(C(=O)Cn3nc(C(=O)N4CCC(O)CC4)c4c3CCCC4)CC2)c1Cl", "note": "[Example 450, 1-(4-(2-chloro-3-methylphenyl)piperazin-1-yl)-2-(3-(4-hydroxypiperidine-1-carbonyl)-4,5,6,7-tetrahydro-1H-indazol-1-yl)ethanone]", "values": [{"measurement": "IC50", "setting": "IDO1 [1]", "value": 152, "unit": "nM"}, {"measurement": "IC50", "setting": "IDO1 [2]", "value": 1.83, "unit": "nM"}]}, {"molecule": "Cc1c(F)ccc(N2CCN(C(=O)Cn3nc(C(=O)N4CCC(O)CC4)c4c3CCCC4)CC2)c1C", "note": "[Example 451, 1-(4-(4-fluoro-2,3-dimethylphenyl)piperazin-1-yl)-2-(3-(4-hydroxypiperidine-1-carbonyl)-4,5,6,7-tetrahydro-1H-indazol-1-yl)ethanone]", "values": [{"measurement": "IC50", "setting": "IDO1 [1]", "value": 36, "unit": "nM"}, {"measurement": "IC50", "setting": "IDO1 [2]", "value": 1.2, "unit": "nM"}]}, {"molecule": "Cc1cccc(N2CCN(C(=O)Cn3nc(C(=O)N4CCN(CC(N)=O)CC4)c4c3CCCC4)CC2)c1C", "note": "[Example 454, 2-(4-(1-(2-(4-(2,3-dimethylphenyl)piperazin-1-yl)-2-oxoethyl)-4,5,6,7-tetrahydro-1H-indazol-3-carbonyl)piperazin-1-yl) acetamide]", "values": [{"measurement": "IC50", "setting": "IDO1 [1]", "value": 68, "unit": "nM"}, {"measurement": "IC50", "setting": "IDO1 [2]", "value": 2.82, "unit": "nM"}]}, {"molecule": "Cc1c(F)cccc1N1CCN(C(=O)Cn2nc(C(=O)N3CCC(OCCO)CC3)c3c2CCC3)CC1", "note": "[Example 456, 1-(4-(3-fluoro-2-methylphenyl)piperazin-1-yl)-2-(3-(4-(2-hydroxyethoxy)piperidine-1-carbonyl)-5,6-dihydrocyclopenta[c]pyrazol-1(4H)-yl) ethanone]", "values": [{"measurement": "IC50", "setting": "IDO1 [1]", "value": 102, "unit": "nM"}, {"measurement": "IC50", "setting": "IDO1 [2]", "value": 21.4, "unit": "nM"}]}, {"molecule": "Cc1cccc(N2CCN(C(=O)Cn3nc(C(=O)N4CC[C@@H](O)[C@@H](F)C4)c4c3CCCC4)CC2)c1Cl", "note": "[Example 457, 1-(4-(2-chloro-3-methylphenyl)piperazin-1-yl)-2-(3-((3S,4R)-3-fluoro-4-hydroxy-piperidine-1-carbonyl)-4,5,6,7-tetrahydro-1H-indazol-1-yl)ethanone]", "values": [{"measurement": "IC50", "setting": "IDO1 [1]", "value": 307, "unit": "nM"}, {"measurement": "IC50", "setting": "IDO1 [2]", "value": 1.75, "unit": "nM"}]}, {"molecule": "Cc1c(F)ccc(N2CCN(C(=O)Cn3nc(C(=O)N4CC[C@@H](O)[C@@H](F)C4)c4c3CCCC4)CC2)c1C", "note": "[Example 462, 1-(4-(4-fluoro-2,3-dimethylphenyl)piperazin-1-yl)-2-(3-((3S,4R)-3-fluoro-4-hydroxy-piperidine-1-carbonyl)-4,5,6,7-tetrahydro-1H-indazol-1-yl)ethanone,]", "values": [{"measurement": "IC50", "setting": "IDO1 [1]", "value": 103, "unit": "nM"}, {"measurement": "IC50", "setting": "IDO1 [2]", "value": 1.32, "unit": "nM"}]}, {"molecule": "Cc1cccc(N2CCN(C(=O)Cn3nc(C(=O)N4CCC(OCCO)CC4)c4c3CCCC4)CC2)c1C", "note": "[Example 463, 1-(4-(2,3-dimethylphenyl)piperazin-1-yl)-2-(3-(4-(2-hydroxyethoxy)piperidine-1-carbonyl)-4,5,6,7-tetrahydro-1H-indazol-1-yl)ethanone]", "values": [{"measurement": "IC50", "setting": "IDO1 [1]", "value": 37, "unit": "nM"}, {"measurement": "IC50", "setting": "IDO1 [2]", "value": 1.37, "unit": "nM"}]}, {"molecule": "Cc1c(F)ccc(N2CCN(C(=O)Cn3nc(C(=O)N4CCC(O)CC4(C)C)c4c3CCCC4)CC2)c1C", "note": "(centres unmarked) [Example 464, 1-(4-(4-fluoro-2,3-dimethylphenyl)piperazin-1-yl)-2-(3-(4-hydroxy-2,2-dimethyl-piperidine-1-carbonyl)-4,5,6,7-tetrahydro-1H-indazol-1-yl)ethanone]", "values": [{"measurement": "IC50", "setting": "IDO1 [1]", "value": 135, "unit": "nM"}, {"measurement": "IC50", "setting": "IDO1 [2]", "value": 1.38, "unit": "nM"}]}, {"molecule": "Cc1c(F)ccc(N2CCN(C(=O)Cn3nc(C(=O)N4CC[C@H](O)[C@H](F)C4)c4c3CCCC4)CC2)c1C", "note": "[Example 465, 1-(4-(4-fluoro-2,3-dimethylphenyl)piperazin-1-yl)-2-(3-((3R,4S)-3-fluoro-4-hydroxypiperidine-1-carbonyl)-4,5,6,7-tetrahydro-1H-indazol-1-yl)ethanone]", "values": [{"measurement": "IC50", "setting": "IDO1 [1]", "value": 87, "unit": "nM"}, {"measurement": "IC50", "setting": "IDO1 [2]", "value": 1.47, "unit": "nM"}]}, {"molecule": "Cc1cccc(N2CCN(C(=O)Cn3nc(C(=O)N4CCC(O)CC4)c4c3CCCC4)CC2)c1C", "note": "[Example 466, 1-(4-(2,3-dimethylphenyl)piperazin-1-yl)-2-(3-(4-hydroxy-piperidine-1-carbonyl)-4,5,6,7-tetrahydro-1H-indazol-1-yl)ethanone]", "values": [{"measurement": "IC50", "setting": "IDO1 [1]", "value": 233, "unit": "nM"}, {"measurement": "IC50", "setting": "IDO1 [2]", "value": 1.69, "unit": "nM"}]}]}
